We go through eight molecules from article PMC8428848, “Ancient role of sulfakinin/cholecystokinin-type signalling in inhibitory regulation of feeding processes revealed in an echinoderm” (eLife, 2021).

Like-named read-outs stand apart in the source and are kept apart here. Square brackets hold non-standard residues; d marks the D form. Ends that are not written are not given here. * marks the point of attachment. pGlu = O=C1CC[C@@H](C(=O)O)N1; SO3H = O=S(=O)(O)*

Test [1] has as its target T1, ArSK/CCKR (Asterias rubens, UniProt A0A8F2ZGB9).
T1 sequence (A0A8F2ZGB9 1-434): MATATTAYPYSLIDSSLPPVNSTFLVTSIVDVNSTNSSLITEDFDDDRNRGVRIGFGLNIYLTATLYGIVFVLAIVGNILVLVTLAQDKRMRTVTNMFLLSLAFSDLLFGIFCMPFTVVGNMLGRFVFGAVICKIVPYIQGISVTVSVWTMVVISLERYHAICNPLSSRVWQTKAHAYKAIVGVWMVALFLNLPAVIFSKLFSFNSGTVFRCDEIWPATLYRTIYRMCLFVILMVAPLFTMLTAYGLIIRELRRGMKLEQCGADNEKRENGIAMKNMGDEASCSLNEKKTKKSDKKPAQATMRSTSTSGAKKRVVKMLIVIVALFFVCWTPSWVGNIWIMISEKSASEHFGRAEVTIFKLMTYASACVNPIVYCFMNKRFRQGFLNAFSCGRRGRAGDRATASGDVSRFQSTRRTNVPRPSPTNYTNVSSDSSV
The test is described as follows: Aequorin bioluminescence receptor assay in CHO-K1 cells (G5A) co-transfected with ArSK/CCKR and human Gα16. It is filed as cell-based. Conditions: 10^–12 to 10^–4 M; at least three independent experiments in triplicate. An excerpt: To enable testing of ArSK/CCK1 and ArSK/CCK2 as candidate ligands for ArSK/CCKR, a full-length cDNA encoding ArSK/CCKR was synthesized by GenScript (Piscataway, NJ) and cloned into pcDNA 3.1+ vector (Invitrogen, Thermo Fisher Scientific, Waltham, MA). A partial Kozak translation initiation sequence (CACC) was introduced upstream to the start codon (ATG). CHO-K1 cells stably expressing the mitochondrial targeted calcium-sensitive bioluminescent reporter GFP-aequorin fusion protein (G5A) ([Baubet et al., 2000]) were used as a heterologous expression system for ArSK/CCKR. These cells have been used previously for neuropeptide receptor deorphanisation ([Bauknecht and Jékely, 2015]) and were generously supplied to us by Dr Gáspár Jékely (University of Exeter). The cell line was generated using the CHO-K1 cell line from Sigma-Aldrich (85051005; RRID: CVCL_0214), which is certified by the European Collection of Authenticated Cell Cultures (ECACC), and expression of the GFP-aequorin fusion protein (G5A) in the cell line was determined by functionality in displaying calcium-activated luminescence. […] Cells were cultured, co-transfected with the pcDNA 3.1+ vector containing the ArSK/CCKR cDNA sequence and plasmids encoding the promiscuous human G-protein Gα16. Then bioluminescence-based receptor assays were performed, as described previously for A. rubens luqin-type receptors ([Yañez-Guerra et al., 2018]).
[…] Concentration-response data were determined as a percentage of the highest response for each peptide (100% activation). EC50 values were calculated from concentration-response curves based on four to six independent transfections and averaging two to three replicates in each transfection using Prism 6.0 (RRID:SCR_002798; GraphPad software, La Jolla, CA). Cells transfected with an empty vector were used for control experiments.

Test [2] deals with Asterias rubens. The note with it: cited from earlier work. From the text:
(§1) Extra-oral feeding in starfish requires relaxation of muscle in the wall of the cardiac stomach and in intrinsic and extrinsic retractor strands to enable stomach eversion. Then when external digestion and ingestion of prey tissue is completed, contraction of the musculature enables cardiac stomach retraction ([Anderson, 1954]). Previous studies have identified neuropep ...

Test [3] relates to cardiac stomach preparations. The note with it: cited from earlier work.
From the text: as §1

Test [4] relates to Asterias rubens. Conditions: injected in vivo; ref Tinoco et al., 2018; cited from earlier work. An excerpt:
The in vivo effect of SK/CCK-type neuropeptides in triggering cardiac stomach retraction is indicative of a role in physiological mechanisms that control termination of feeding behaviour in starfish. […] Accordingly, here we observed that starfish injected with SK/CCK-type neuropeptides took longer to enclose prey compared to control animals injected with water. Further ...

Test [5] concerns affinity-purified rabbit antibodies to ArSK/CCK1. The experiment in a line: ELISA specificity test of affinity-purified antibodies to ArSK/CCK1. Format: binding. The note with it: TEA fraction diluted 1:10; peptide 0.1 nmol (100 µl of 1 µM); mean of six replicates. From the text: To generate antibodies to ArSK/CCK1, an N-terminally truncated peptide analog of ArSK/CCK1 with the addition of a reactive N-terminal lysine residue was synthesized (KY(SO3H)GHGLFW-NH2 , Peptide Protein Research Ltd, Fareham, UK). To generate antibodies to ArSK/CCKR, a peptide corresponding to the C-terminal 15 amino acids of ArSK/CCK-R with addition of an N-terminal reactive lysine residue was synthesized (KPSPTNYTNVSSDSSV, Peptide Protein Research Ltd, Fareham, UK). These peptides were conjugated to porcine thyroglobulin (Sigma-Aldrich, Gillingham, UK) as a carrier protein using 5% glutaraldehyde (Sigma-Aldrich, Gillingham, UK) in phosphate buffer (0.1 M; pH 7.2) and the conjugate was used for immunisation of a rabbit for ArSK/CCK1 (70-day protocol; Charles River Biologics, Romans, France) and a guinea pig for ArSK/CCKR (56-day protocol; Charles River Biologics, Romans, France). The antigens were emulsified in Freund’s complete adjuvant for primary immunisations (~100 nmol antigen peptide) and in Freund’s incomplete adjuvant for three booster immunisations (~50 nmol antigen peptide). The presence of antibodies to the antigen peptides in post-immunisation serum samples was assessed using an enzyme-linked immunosorbent assay (ELISA), in comparison with pre-immune serum (Figure 5—figure supplement 1a; Figure 6—figure supplement 1). Antibodies to the antigen peptides were purified from the final bleed antiserum by affinity purification using the AminoLink Plus Immobilization Kit (Thermo Fisher Scientific, Waltham, MA), with bound antibodies eluted using glycine elution buffer (6.3 ml of 100 mM glycine [VWR Chemicals, Leicestershire, UK] and 0.7 ml of Tris [1 M, pH = 7.0]) and […] (TEA) elution buffer (6.3 ml of TEA [Sigma-Aldrich, Gillingham, UK] and 0.7 ml of Tris [1 M, pH = 7.0]). Eluates were dialyzed and sodium azide (0.1%) was added for long-term storage of the affinity-purified antibodies at 4°C. The specificity of ArSK/CCK1 antibodies eluted with TEA, which were subsequently used for immunohistochemistry (see below), was assessed by ELISA by testing them at a concentration of 1:10 with the following synthetic peptides (100 µl at a concentration of 1 µM dissolved in carbonate/bicarbonate buffer [25 mM sodium carbonate, 25 mM sodium bicarbonate, pH = 9.8]): ArSK/CCK1, ArSK/CCK2, ArSK/CCK2(ns) and the A. rubens luqin-type peptide ArLQ (Figure 5—figure supplement 1b). The rabbit antiserum to ArSK/CCK1 has been assigned the RRID:AB_2877176 and the guinea pig antiserum to ArSK/CCKR has been assigned the RRID:AB_2891354.

Test [6] addresses Asterias rubens SK/CCK-type receptor (ArSK/CCKR) (Asterias rubens).

“GGGVPHVFQSGGIF-NH2 [ArTK2, A. rubens tachykinin-like peptide ([…]-NH2), reference compound]”: the “activation of ArSK/CCKR (luminescence)” value in test [1] is “inactive”.

NGFFYamide: the “effect on everted cardiac stomach when injected in vivo” value in test [2] (ref Semmens et al., 2013) is “retraction of the everted stomach”. For the same molecule, the “effect on cardiac stomach in vitro” value in test [3] (ref Semmens et al., 2013) is listed as “triggers contraction”. Also, the “onset of feeding on prey (mussels)” value in test [4] is listed as “significant delay in the onset of feeding”.

On to asterotocin, for which the “effect on cardiac stomach when injected in vivo” value in test [2] (ref Odekunle et al., 2019) was “trigger cardiac stomach eversion”. The “effect on cardiac stomach in vitro” value in test [3] (ref Odekunle et al., 2019) is “cause relaxation”.

“SGPYSFNSGLTF-NH2 [S2, SALMFamide neuropeptide S2 (…-NH2)]”: the “effect on cardiac stomach when injected in vivo” value in test [2] (ref Melarange et al., 1999) is “trigger cardiac stomach eversion”. Besides, in test [3] (ref Melarange et al., 1999), the “effect on cardiac stomach in vitro” value was “cause relaxation”. In test [1], the “activation of ArSK/CCKR (luminescence)” value was “inactive”.

As to “EEKTRFPKFMRW-NH2 [ArLQ, A. rubens luqin-type neuropeptide …-NH2, reference compound]”, in test [5], the “ELISA reactivity (optical density) with antibodies to ArSK/CCK1” value is “do not cross-react”.

B1: ArSK/CCK1 (Asterias rubens sulfakinin/cholecystokinin-type neuropeptide 1), pQSKVDDY(SO3H)GHGLFW-NH2 (peptide)
peptide: [pGlu]SKVDDY(SO3H)GHGLFW-NH2
SMILES: CC(C)C[C@H](NC(=O)CNC(=O)[C@H](Cc1c[nH]cn1)NC(=O)CNC(=O)[C@H](Cc1ccc(OS(=O)(=O)O)cc1)NC(=O)[C@H](CC(=O)O)NC(=O)[C@H](CC(=O)O)NC(=O)[C@@H](NC(=O)[C@H](CCCCN)NC(=O)[C@H](CO)NC(=O)[C@@H]1CCC(=O)N1)C(C)C)C(=O)N[C@@H](Cc1ccccc1)C(=O)N[C@@H](Cc1c[nH]c2ccccc12)C(N)=O
As for B1, in test [6], the EC50 of concentration-dependent luminescence (calcium, GFP-aequorin G5A) in CHO-K1 cells transfected with ArSK/CCKR and human Gα16 was 0.25 nM.

On to GGDDQYGFGLFF-NH2 [ArSK/CCK2(ns), non-sulphated form of ArSK/CCK2, …-NH2], for which, in test [6], the EC50 of concentration-dependent luminescence (calcium, GFP-aequorin G5A) in CHO-K1 cells transfected with ArSK/CCKR and human Gα16 amounted to 48000 nM.

B2: ArSK/CCK2 (Asterias rubens sulfakinin/cholecystokinin-type neuropeptide 2), GGDDQY(SO3H)GFGLFF-NH2 (peptide)
peptide: GGDDQY(SO3H)GFGLFF-NH2
modifications: N-terminus assumed
SMILES: CC(C)C[C@H](NC(=O)CNC(=O)[C@H](Cc1ccccc1)NC(=O)CNC(=O)[C@H](Cc1ccc(OS(=O)(=O)O)cc1)NC(=O)[C@H](CCC(N)=O)NC(=O)[C@H](CC(=O)O)NC(=O)[C@H](CC(=O)O)NC(=O)CNC(=O)CN)C(=O)N[C@@H](Cc1ccccc1)C(=O)N[C@@H](Cc1ccccc1)C(N)=O
For B2, the EC50 of concentration-dependent luminescence (calcium, GFP-aequorin G5A) in CHO-K1 cells transfected with ArSK/CCKR and human Gα16 in test [6] came to 0.12 nM.
